Tested on: pPSCs (cESCs d7) and PSCs (WT ESCs)
Assay: Cardiogenic differentiation induced by icariin, Real-Time PCR of cardiogenic markers
Assay type: cell-based, mouse
Settings: 12 days stimulation with icariin (d7 to d7+12), RNA isolated every 4 days, normalized to Gapdh; pPSCs compared with PSCs
Procedure: Total RNA was isolated from ˜1×10^6 cells per sample using the RNeasy Plus Mini Kit (Qiagen, Hombrechtikon, Switzerland) with RNase-free DNase treatment (Qiagen) following the manufacturer's protocol. For reverse transcription (RT) 2 μg total RNA was reverse transcribed into cDNA in a reaction volume of 20 μl using the iScript™ Advanced cDNA Synthesis Kit (Bio-Rad). Each RT reaction mix contained 4 μl 5× iScript advanced reaction mix and 1 μl iScript advanced reverse transcriptase. The 20 μl reactions were incubated at 42° C. for 30 min, at 85° C. for 5 min, and then held at 4° C. Real-Time PCR reactions were performed on the resulting cDNA using the CFX Connect™ Real-Time PCR Detection System (Bio-Rad), SsoAdvanced™ SYBR® Green Supermix (Bio-Rad) and Hard-Shell® Low-Profile Thin-Wall 96-Well Skirted PCR Plates (Bio-Rad). Briefly, following the RT step, 5 μl of the 100fold-diluted RT reaction was combined with 15 μl mastermix (2× SsoAdvanced™ SYBR® Green Supermix, forward primer, reverse primer and nuclease-free water) in a 20 μl final volume. PCR reactions were incubated at 95° C. for 3 min, followed by 39 cycles of 95° C. for 10 s and 62° C. for 30 s; and were run as duplicates of two independent experiments. […] Results were analyzed using CFX Manager™ software (Bio-Rad) and mRNA expression levels relative to Gapdh were calculated based on the AACt method. […]

COc1ccc(-c2oc3c(CC=C(C)C)c(O[C@@H]4O[C@H](CO)[C@@H](O)[C@H](O)[C@H]4O)cc(O)c3c(=O)c2O[C@@H]2O[C@@H](C)[C@H](O)[C@@H](O)[C@H]2O)cc1 [icariin]
mRNA expression of all tested cardiogenic markers: induced higher in pPSCs than in PSCs

Source: patent US20160244718A1, “REPROGRAMMING OF PLURIPOTENT STEM CELLS FOR IMPROVED CONTROL OF THEIR DIFFERENTIATION PATHWAYS” (ETH ZURICH, priority 2013, published 2016)
